Laboratory results taken from paper PMC5218480 (PLoS ONE, 2017).

System: MV-4-11 cells
Assay: Gene expression microarray analysis (Affymetrix PrimeView) and GSEA
Format: cell-based, human
Set-up: RFU PODN (11730768_x_at) / Fold change /veh PODN (11730768_x_at) / RFU LINC00158 (11744669_a_at) / Fold change /veh LINC00158 (11744669_a_at) / RFU DUSP10 (11751237_a_at) / Fold change /veh DUSP10 (11751237_a_at) / RFU ID3 (11757404_x_at) / Fold change /veh ID3 (11757404_x_at) / RFU PLEKHG5 (11737974_s_at) / Fold change /veh PLEKHG5 (11737974_s_at) / RFU LRRC4B (11730491_at) / Fold change /veh LRRC4B (11730491_at) / RFU GIMAP4 (11747438_a_at) / Fold change /veh GIMAP4 (11747438_a_at) / RFU KRT8 (11758183_x_at) / Fold change /veh KRT8 (11758183_x_at) / RFU CNN1 (11734310_a_at) / Fold change /veh CNN1 (11734310_a_at) / RFU VPS37D (11726825_at) / Fold change /veh VPS37D (11726825_at) / RFU C10orf10 (11716522_x_at) / Fold change /veh C10orf10 (11716522_x_at) / RFU KIR2DL2 /// KIR2DL4 /// KIR2DL5A /// KIR2DL5B /// KIR2DS1 /// KIR2DS2 /// KIR2DS3 /// KIR2DS4 /// KIR3DL3 /// KIR3DL3 /// KIR3DS1 (11738374_at) / Fold change /veh KIR2DL2 /// KIR2DL4 /// KIR2DL5A /// KIR2DL5B /// KIR2DS1 /// KIR2DS2 /// KIR2DS3 /// KIR2DS4 /// KIR3DL3 /// KIR3DL3 /// KIR3DS1 (11738374_at) / RFU C1QL1 (11718748_at) / Fold change /veh C1QL1 (11718748_at) / RFU TMPRSS4 (11747572_a_at) / Fold change /veh TMPRSS4 (11747572_a_at) / RFU HAMP (11756126_x_at) / Fold change /veh HAMP (11756126_x_at) / RFU RNFT2 (11725882_a_at) / Fold change /veh RNFT2 (11725882_a_at) / RFU NR4A2 (11747474_a_at) / Fold change /veh NR4A2 (11747474_a_at) / RFU ABCC12 (11746883_a_at) / Fold change /veh ABCC12 (11746883_a_at) / RFU TMEM136 (11760407_x_at) / Fold change /veh TMEM136 (11760407_x_at) / RFU CLDN22 /// WWC2 (11732394_at) / Fold change /veh CLDN22 /// WWC2 (11732394_at) / RFU HLA-DPB1 (11760878_x_at) / Fold change /veh HLA-DPB1 (11760878_x_at) / RFU SPINT1 (11716480_a_at) / Fold change /veh SPINT1 (11716480_a_at) / RFU GAP43 (11754022_s_at) / Fold change /veh GAP43 (11754022_s_at) / RFU A4GNT (11735810_at) / Fold change /veh A4GNT (11735810_at) / RFU PRB3 (11715151_x_at) / Fold change /veh PRB3 (11715151_x_at) / RFU TUBB4B (11761932_at) / Fold change /veh TUBB4B (11761932_at) / RFU CAPN14 (11732068_a_at) / Fold change /veh CAPN14 (11732068_a_at) / RFU TMCC2 (11721928_a_at) / Fold change /veh TMCC2 (11721928_a_at) / RFU IRGQ (11745062_a_at) / Fold change /veh IRGQ (11745062_a_at) / RFU FAM174B (11720279_a_at) / Fold change /veh FAM174B (11720279_a_at) / RFU TMPRSS4 (11748680_a_at) / Fold change /veh TMPRSS4 (11748680_a_at) / RFU FAM212B (11763350_a_at) / Fold change /veh FAM212B (11763350_a_at) / RFU PLEKHG5 (11743358_a_at) / Fold change /veh PLEKHG5 (11743358_a_at) / RFU ZSCAN30 (11745921_a_at) / Fold change /veh ZSCAN30 (11745921_a_at) / RFU CMKLR1 (11741424_a_at) / Fold change /veh CMKLR1 (11741424_a_at) / RFU LOC101060620 /// MAPK8IP1 (11723275_at) / Fold change /veh LOC101060620 /// MAPK8IP1 (11723275_at) / RFU SPTSSB (11747773_x_at) / Fold change /veh SPTSSB (11747773_x_at) / RFU PRSS12 (11739890_at) / Fold change /veh PRSS12 (11739890_at) / RFU BIN1 (11741810_x_at) / Fold change /veh BIN1 (11741810_x_at) / RFU WNT11 (11732464_a_at) / Fold change /veh WNT11 (11732464_a_at) / RFU C10orf10 (11716521_a_at) / Fold change /veh C10orf10 (11716521_a_at) / RFU C5orf56 (11738089_at) / Fold change /veh C5orf56 (11738089_at) / RFU CYB561 (11721691_x_at) / Fold change /veh CYB561 (11721691_x_at) / RFU ANKRD19P (11752326_a_at) / Fold change /veh ANKRD19P (11752326_a_at) / RFU OR2T12 /// OR2T33 /// OR2T8 (11738714_s_at) / Fold change /veh OR2T12 /// OR2T33 /// OR2T8 (11738714_s_at) / RFU VCAN (11748164_a_at) / Fold change /veh VCAN (11748164_a_at) / RFU JSRP1 (11732532_at) / Fold change /veh JSRP1 (11732532_at) / RFU KRTAP10-11 (11738290_x_at) / Fold change /veh KRTAP10-11 (11738290_x_at) / RFU MYO3A (11730013_a_at) / Fold change /veh MYO3A (11730013_a_at) / RFU EBF3 (11725865_a_at) / Fold change /veh EBF3 (11725865_a_at) / RFU CAMK2N1 (11719241_x_at) / Fold change /veh CAMK2N1 (11719241_x_at) / RFU C5orf56 (11738088_a_at) / Fold change /veh C5orf56 (11738088_a_at) / RFU OLFML3 (11715873_a_at) / Fold change /veh OLFML3 (11715873_a_at) / RFU LOC100653217 /// NTM (11731650_a_at) / Fold change /veh LOC100653217 /// NTM (11731650_a_at) / RFU MAPK11 (11762145_a_at) / Fold change /veh MAPK11 (11762145_a_at) / RFU FIZ1 (11724087_x_at) / Fold change /veh FIZ1 (11724087_x_at) / RFU OASL (11726364_x_at) / Fold change /veh OASL (11726364_x_at) / RFU SOX15 (11748057_x_at) / Fold change /veh SOX15 (11748057_x_at) / RFU CD79A (11719716_a_at) / Fold change /veh CD79A (11719716_a_at) / RFU HIST1H1D (11736915_at) / Fold change /veh HIST1H1D (11736915_at) / RFU CASKIN2 (11723855_a_at) / Fold change /veh CASKIN2 (11723855_a_at) / RFU LOC730098 (11760151_x_at) / Fold change /veh LOC730098 (11760151_x_at) / RFU OR4N2 (11742367_at) / Fold change /veh OR4N2 (11742367_at) / RFU PRRT2 (11749266_a_at) / Fold change /veh PRRT2 (11749266_a_at) / RFU SNX32 (11753110_a_at) / Fold change /veh SNX32 (11753110_a_at) / RFU CDHR5 (11726645_a_at) / Fold change /veh CDHR5 (11726645_a_at) / RFU RCAN1 (11760418_a_at) / Fold change /veh RCAN1 (11760418_a_at) / RFU FAM167A (11723789_a_at) / Fold change /veh FAM167A (11723789_a_at) / RFU FAM26E (11764081_at) / Fold change /veh FAM26E (11764081_at) / RFU ISYNA1 (11749810_s_at) / Fold change /veh ISYNA1 (11749810_s_at) / RFU ACY1 (11761880_at) / Fold change /veh ACY1 (11761880_at) / RFU 11764098_at / Fold change /veh 11764098_at / RFU SAMD14 (11745864_x_at) / Fold change /veh SAMD14 (11745864_x_at) / RFU NPB (11741838_a_at) / Fold change /veh NPB (11741838_a_at) / RFU TMPRSS6 (11731388_a_at) / Fold change /veh TMPRSS6 (11731388_a_at) / RFU KRTAP10-2 (11738614_at) / Fold change /veh KRTAP10-2 (11738614_at) / RFU ARHGAP8 /// PRR5-ARHGAP8 (11727945_x_at) / Fold change /veh ARHGAP8 /// PRR5-ARHGAP8 (11727945_x_at) / RFU KRTAP5-7 /// NADSYN1 (11734609_at) / Fold change /veh KRTAP5-7 /// NADSYN1 (11734609_at) / RFU RASL12 (11751679_a_at) / Fold change /veh RASL12 (11751679_a_at) / RFU CDKN2B (11736163_a_at) / Fold change /veh CDKN2B (11736163_a_at) / RFU PRF1 (11729649_at) / Fold change /veh PRF1 (11729649_at) / RFU, ZNF638 /// ZNF638-IT1 / Fold change vs veh, ZNF638 /// ZNF638-IT1 / RFU, PANK3 / Fold change vs veh, PANK3 / RFU, SH3YL1 / Fold change vs veh, SH3YL1 / RFU, ZEB2 / Fold change vs veh, ZEB2 / RFU, NRIP1 / Fold change vs veh, NRIP1 / RFU, PTTG1IP / Fold change vs veh, PTTG1IP / RFU, CAPN2 / Fold change vs veh, CAPN2 / RFU, MED14 / Fold change vs veh, MED14 / RFU, SNORA58 / Fold change vs veh, SNORA58 / RFU, C1orf63 / Fold change vs veh, C1orf63 / RFU, LRRFIP1 / Fold change vs veh, LRRFIP1 / RFU, NDUFAF7 / Fold change vs veh, NDUFAF7 / RFU, SLC12A2 / Fold change vs veh, SLC12A2 / RFU, IBTK / Fold change vs veh, IBTK / RFU, ESF1 / Fold change vs veh, ESF1 / Fold change vs veh, TMEM50B / RFU, TAOK1 / Fold change vs veh, TAOK1 / RFU, ACBD3 / Fold change vs veh, ACBD3 / RFU, TMA16 / Fold change vs veh, TMA16 / RFU, RWDD3 / Fold change vs veh, RWDD3 / RFU, BCAT1 / Fold change vs veh, BCAT1 / RFU, EDEM3 / Fold change vs veh, EDEM3 / RFU, TMEM33 / Fold change vs veh, TMEM33 / RFU, WDR75 / Fold change vs veh, WDR75 / RFU, AHCTF1 / Fold change vs veh, AHCTF1 / RFU, TFRC / Fold change vs veh, TFRC / RFU, ZDHHC17 / Fold change vs veh, ZDHHC17 / RFU, NOM1 / Fold change vs veh, NOM1 / RFU, ARL8B / Fold change vs veh, ARL8B / RFU, ZBTB11 / Fold change vs veh, ZBTB11 / RFU, TAMM41 / Fold change vs veh, TAMM41 / RFU, KIAA1704 /// LOC100996395 / Fold change vs veh, KIAA1704 /// LOC100996395 / RFU, ING1 / Fold change vs veh, ING1 / RFU, TRMT61B / Fold change vs veh, TRMT61B / RFU, FUBP3 / Fold change vs veh, FUBP3 / RFU, TP53 / Fold change vs veh, TP53 / RFU, TNKS2 / Fold change vs veh, TNKS2 / RFU, ZFP14 / Fold change vs veh, ZFP14 / RFU, ACTR2 / Fold change vs veh, ACTR2 / RFU, PPP3R1 / Fold change vs veh, PPP3R1 / RFU, PIK3R1 / Fold change vs veh, PIK3R1 / RFU, HNRNPA1 / Fold change vs veh, HNRNPA1 / RFU, RNF170 / Fold change vs veh, RNF170 / RFU, ZNF28 / Fold change vs veh, ZNF28 / RFU, RNGTT / Fold change vs veh, RNGTT / RFU, OGT / Fold change vs veh, OGT / RFU, BRD1 / Fold change vs veh, BRD1 / RFU, MARS / Fold change vs veh, MARS / RFU, ZNF655 / Fold change vs veh, ZNF655 / RFU, FAHD1 / Fold change vs veh, FAHD1 / RFU, BDP1 / Fold change vs veh, BDP1 / RFU, LRRCC1 / Fold change vs veh, LRRCC1 / RFU, ARID1A / Fold change vs veh, ARID1A / RFU, ZNF146 / Fold change vs veh, ZNF146 / RFU, ZNF330 / Fold change vs veh, ZNF330 / RFU, GPN3 / Fold change vs veh, GPN3 / RFU, C9orf123 / Fold change vs veh, C9orf123 / RFU, N4BP2L2 / Fold change vs veh, N4BP2L2 / RFU, ARFIP1 / Fold change vs veh, ARFIP1 / RFU, FAM179B / Fold change vs veh, FAM179B / RFU, BCL10 / Fold change vs veh, BCL10 / RFU, UHRF1BP1L / Fold change vs veh, UHRF1BP1L / RFU, BET1 / Fold change vs veh, BET1 / RFU, CNOT2 / Fold change vs veh, CNOT2 / RFU, ZNF268 / Fold change vs veh, ZNF268 / Fold change vs veh, ZNF507 / RFU, DGCR2 / Fold change vs veh, DGCR2 / RFU, WDSUB1 / Fold change vs veh, WDSUB1 / Fold change vs veh, HSP90B1 /// MIR3652 / RFU, ADSS / Fold change vs veh, ADSS / RFU, GK / Fold change vs veh, GK / RFU, ZNF148 / Fold change vs veh, ZNF148 / RFU, TAF9 / Fold change vs veh, TAF9 / RFU, SLC1A5 / Fold change vs veh, SLC1A5 / RFU, SLMO2 / Fold change vs veh, SLMO2 / RFU, ABCC4 / Fold change vs veh, ABCC4 / RFU, LOC101060439 /// RAP1B / Fold change vs veh, LOC101060439 /// RAP1B / RFU, RFX7 / Fold change vs veh, RFX7 / RFU, GTPBP10 / Fold change vs veh, GTPBP10 / RFU, CNEP1R1 / Fold change vs veh, CNEP1R1 / RFU, BIVM-ERCC5 /// ERCC5 / Fold change vs veh, BIVM-ERCC5 /// ERCC5 / RFU, ILF3 / Fold change vs veh, ILF3 / RFU 11762660_at / Fold change /veh 11762660_at / RFU VCAN (11757783_s_at) / Fold change /veh VCAN (11757783_s_at) / RFU DDX43 (11728927_at) / Fold change /veh DDX43 (11728927_at) / RFU KRT8 (11758188_x_at) / Fold change /veh KRT8 (11758188_x_at) / RFU NKD1 (11759106_at) / Fold change /veh NKD1 (11759106_at) / RFU SRD5A1 (11742802_a_at) / Fold change /veh SRD5A1 (11742802_a_at) / RFU TPSAB1 /// TPSB2 (11721975_s_at) / Fold change /veh TPSAB1 /// TPSB2 (11721975_s_at) / RFU GSTM3 (11746129_a_at) / Fold change /veh GSTM3 (11746129_a_at) / RFU IL23R (11737362_x_at) / Fold change /veh IL23R (11737362_x_at) / RFU TMEM51 (11727254_a_at) / Fold change /veh TMEM51 (11727254_a_at) / RFU PIWIL2 (11732686_x_at) / Fold change /veh PIWIL2 (11732686_x_at) / RFU ORM1 (11744905_x_at) / Fold change /veh ORM1 (11744905_x_at) / RFU CCDC152 (11743942_at) / Fold change /veh CCDC152 (11743942_at) / RFU ECM1 (11717891_a_at) / Fold change /veh ECM1 (11717891_a_at) / RFU IL23R (11748794_a_at) / Fold change /veh IL23R (11748794_a_at) / RFU TNFAIP8L3 (11732012_x_at) / Fold change /veh TNFAIP8L3 (11732012_x_at) / RFU MBOAT4 (11741988_at) / Fold change /veh MBOAT4 (11741988_at) / RFU 11764193_at / Fold change /veh 11764193_at / RFU TMEM53 (11763286_at) / Fold change /veh TMEM53 (11763286_at) / RFU MAGEB2 (11727129_at) / Fold change /veh MAGEB2 (11727129_at) / RFU TMEM200A (11744735_a_at) / Fold change /veh TMEM200A (11744735_a_at) / RFU CCDC152 (11751479_a_at) / Fold change /veh CCDC152 (11751479_a_at) / RFU FAM211A (11726209_a_at) / Fold change /veh FAM211A (11726209_a_at) / RFU RGS16 (11746705_a_at) / Fold change /veh RGS16 (11746705_a_at) / RFU VCAN (11755009_s_at) / Fold change /veh VCAN (11755009_s_at) / RFU RHOB (11743442_s_at) / Fold change /veh RHOB (11743442_s_at) / RFU RGS16 (11720943_a_at) / Fold change /veh RGS16 (11720943_a_at) / RFU RGS16 (11720944_at) / Fold change /veh RGS16 (11720944_at) / RFU, VPS4B / Fold change vs veh, VPS4B / RFU, CREB1 / Fold change vs veh, CREB1 / RFU, DNAJC13 / Fold change vs veh, DNAJC13 / RFU, GNAQ / Fold change vs veh, GNAQ / RFU, CDK5R1 / Fold change vs veh, CDK5R1 / RFU, ZRANB3 / Fold change vs veh, ZRANB3 / RFU, CUL4A / Fold change vs veh, CUL4A / RFU, CCNY / Fold change vs veh, CCNY / RFU, UFL1 / Fold change vs veh, UFL1 / RFU, COG3 / Fold change vs veh, COG3 / RFU, DIAPH2 / Fold change vs veh, DIAPH2 / RFU, SKA2 / Fold change vs veh, SKA2 / RFU, AFF3 / Fold change vs veh, AFF3 / RFU, LMF1 / Fold change vs veh, LMF1 / RFU, IPO11 / Fold change vs veh, IPO11 / RFU, DFFB / Fold change vs veh, DFFB / RFU, FOXP1 / Fold change vs veh, FOXP1 / RFU, CARD8 / Fold change vs veh, CARD8 / RFU, STRN3 / Fold change vs veh, STRN3 / RFU, ADK / Fold change vs veh, ADK / RFU, RASSF2 / Fold change vs veh, RASSF2 / RFU, WIPF1 / Fold change vs veh, WIPF1 / RFU, LARP1B / Fold change vs veh, LARP1B / RFU, RASA1 / Fold change vs veh, RASA1 / RFU, RB1 / Fold change vs veh, RB1 / RFU, PPFIA1 / Fold change vs veh, PPFIA1 / RFU, MAT2A / Fold change vs veh, MAT2A / RFU, CCT5 / Fold change vs veh, CCT5 / RFU, WDR92 / Fold change vs veh, WDR92 / RFU, CUX1 / Fold change vs veh, CUX1 / RFU, TTC7A / Fold change vs veh, TTC7A / RFU, TMEM135 / Fold change vs veh, TMEM135 / RFU, DEPTOR / Fold change vs veh, DEPTOR / RFU, CPM / Fold change vs veh, CPM / RFU, DNAJB6 / Fold change vs veh, DNAJB6 / RFU, CACNA2D3 / Fold change vs veh, CACNA2D3 / RFU, DTX4 / Fold change vs veh, DTX4 / RFU, TFCP2 / Fold change vs veh, TFCP2 / RFU, GMCL1 /// GMCL1P1 / Fold change vs veh, GMCL1 /// GMCL1P1 / RFU, AEBP2 / Fold change vs veh, AEBP2 / RFU, SNHG1 /// SNORD22 /// SNORD25 /// SNORD26 /// SNORD27 /// SNORD28 /// SNORD29 /// SNORD31 / Fold change vs veh, SNHG1 /// SNORD22 /// SNORD25 /// SNORD26 /// SNORD27 /// SNORD28 /// SNORD29 /// SNORD31 / Fold change (Aza/veh), C12orf56 (ProbeSet 11735607_a_at) / Fold change (ACY-1035/veh), C12orf56 (ProbeSet 11735607_a_at) / Fold change (Aza/veh), FGFR1OP (ProbeSet 11751329_s_at) / Fold change (ACY-1035/veh), FGFR1OP (ProbeSet 11751329_s_at) / Fold change (Aza/veh), VPS36 (ProbeSet 11739960_a_at) / Fold change (ACY-1035/veh), VPS36 (ProbeSet 11739960_a_at) / RFU SYPL1 (11715823_x_at) / Fold change /veh SYPL1 (11715823_x_at) / RFU IGFBP7 (11715501_s_at) / Fold change /veh IGFBP7 (11715501_s_at) / RFU REEP3 (11722064_at) / Fold change /veh REEP3 (11722064_at) / RFU IGLL1 (11728026_x_at) / Fold change /veh IGLL1 (11728026_x_at): dose or concentration left out as unconfirmed
Settings: ProbeSet 11745789_a_at; LIST D

Nc1ccc(-c2cccs2)cc1NC(=O)c1ccc2c(c1)cc(C1CC1)n2CCN1CCOCC1 [ACY-1035]
Fold change vs veh, TMEM135: 0.97
